# According to ChEMBL document CHEMBL5247646, “Discovery of 2-Aminopyrimidines as Potent Agonists for the Bitter Taste Receptor TAS2R14” (J Med Chem, 2023):
# Target: T1, Taste receptor type 2 member 14 (Homo sapiens) (UniProt Q9NYV8)
# T1 sequence (whole entry): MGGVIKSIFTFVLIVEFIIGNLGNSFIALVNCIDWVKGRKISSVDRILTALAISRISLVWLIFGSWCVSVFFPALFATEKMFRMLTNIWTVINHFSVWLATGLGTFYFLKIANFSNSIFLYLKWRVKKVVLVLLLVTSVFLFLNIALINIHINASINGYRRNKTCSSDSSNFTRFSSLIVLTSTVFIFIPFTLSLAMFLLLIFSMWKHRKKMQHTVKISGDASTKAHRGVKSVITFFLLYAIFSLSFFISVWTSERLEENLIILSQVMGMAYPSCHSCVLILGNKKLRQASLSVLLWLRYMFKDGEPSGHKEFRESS
# Assay: Agonist activity at human TAS2R14 transfected in HEK293T cells assessed as IP1 accumulation at 30 uM measured after 150 mins by IP1 accumulation assay relative to flufenamic acid
# Format: cell-based
# Conditions: not given
row,Emax,SMILES
1,27%,O=C(O)c1cccc(Nc2cccc(C(F)(F)F)c2)c1

# Same assay, conditions: filed as agonist
row,Emax,SMILES
1,64%,O=C(O)c1ccccc1Nc1cc(C#CC2CCCC2)cc(C(F)(F)F)c1
2,59%,CN(c1cccc(C(F)(F)F)c1)c1ccccc1C(=O)O

# Target: T2, Alpha-2B adrenergic receptor (Homo sapiens, UniProt P18089)
# T2 sequence (P18089 whole entry): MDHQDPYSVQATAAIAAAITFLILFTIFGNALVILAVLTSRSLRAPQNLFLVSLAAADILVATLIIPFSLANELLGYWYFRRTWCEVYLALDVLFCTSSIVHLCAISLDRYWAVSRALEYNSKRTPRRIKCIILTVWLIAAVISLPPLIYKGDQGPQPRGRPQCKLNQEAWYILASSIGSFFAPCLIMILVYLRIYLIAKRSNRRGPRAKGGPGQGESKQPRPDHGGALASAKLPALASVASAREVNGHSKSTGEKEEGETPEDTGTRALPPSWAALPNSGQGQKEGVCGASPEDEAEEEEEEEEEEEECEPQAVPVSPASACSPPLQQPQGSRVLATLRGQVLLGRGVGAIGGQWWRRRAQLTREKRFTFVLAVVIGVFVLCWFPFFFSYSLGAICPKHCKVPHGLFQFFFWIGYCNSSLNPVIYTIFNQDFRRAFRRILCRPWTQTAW
# Assay: Displacement of [3H]RX821002 from human alpha2B receptor stably expressed in HEK293T cells by Cheng-Prusoff equation analysis
# Format: cell-based
# Conditions: not given
row,Ki,SMILES
1,16000 nM,C#Cc1cc(Nc2ccccc2C(=O)O)cc(C(F)(F)F)c1

# Target: T3, Muscarinic acetylcholine receptor M2 (Homo sapiens, UniProt P08172)
# T3 sequence (P08172 whole entry): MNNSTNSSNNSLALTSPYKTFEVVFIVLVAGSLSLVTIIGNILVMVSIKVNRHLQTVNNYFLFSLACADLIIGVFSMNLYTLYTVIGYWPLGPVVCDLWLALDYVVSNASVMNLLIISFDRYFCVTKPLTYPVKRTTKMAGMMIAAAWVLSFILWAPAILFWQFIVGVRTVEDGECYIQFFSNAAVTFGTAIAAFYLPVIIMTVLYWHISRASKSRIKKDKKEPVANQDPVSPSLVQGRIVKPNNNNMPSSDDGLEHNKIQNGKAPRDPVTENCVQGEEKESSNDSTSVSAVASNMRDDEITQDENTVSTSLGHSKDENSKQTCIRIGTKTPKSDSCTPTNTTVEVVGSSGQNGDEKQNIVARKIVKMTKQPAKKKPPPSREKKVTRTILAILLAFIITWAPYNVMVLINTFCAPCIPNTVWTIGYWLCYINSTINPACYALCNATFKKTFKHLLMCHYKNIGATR
# Assay: Displacement of [3H]NMS from human M2 receptor stably expressed in HEK293T cells by Cheng-Prusoff equation analysis
# Format: cell-based
# Conditions: not given
row,SMILES,Ki
1,Cc1cc(C(F)(F)F)nc(Nc2ccccc2-c2nnn[nH]2)n1,2300 nM

# Target: T4, Taste receptor type 2 member 14 (Homo sapiens, UniProt Q9NYV8)
# T4 sequence (Q9NYV8 whole entry): T1 sequence (whole entry)
# Assay: Partial agonist activity at human TAS2R14 transfected in HEK293T cells assessed as IP1 accumulation measured after 150 mins by IP1 accumulation assay
# Format: cell-based
# Conditions: not given
row,EC50,SMILES
1,100 nM,FC(F)(F)c1cc(Nc2ccccc2-c2nnn[nH]2)cc(C(F)(F)F)c1

# Target: T5, D(2) dopamine receptor (Homo sapiens, UniProt P14416)
# Assay: Displacement of [3H]methylspiperone from human D2S receptor stably expressed in CHO cells by Cheng-Prusoff equation analysis
# Format: cell-based
# Conditions: not given
# T5 sequence (P14416 whole entry): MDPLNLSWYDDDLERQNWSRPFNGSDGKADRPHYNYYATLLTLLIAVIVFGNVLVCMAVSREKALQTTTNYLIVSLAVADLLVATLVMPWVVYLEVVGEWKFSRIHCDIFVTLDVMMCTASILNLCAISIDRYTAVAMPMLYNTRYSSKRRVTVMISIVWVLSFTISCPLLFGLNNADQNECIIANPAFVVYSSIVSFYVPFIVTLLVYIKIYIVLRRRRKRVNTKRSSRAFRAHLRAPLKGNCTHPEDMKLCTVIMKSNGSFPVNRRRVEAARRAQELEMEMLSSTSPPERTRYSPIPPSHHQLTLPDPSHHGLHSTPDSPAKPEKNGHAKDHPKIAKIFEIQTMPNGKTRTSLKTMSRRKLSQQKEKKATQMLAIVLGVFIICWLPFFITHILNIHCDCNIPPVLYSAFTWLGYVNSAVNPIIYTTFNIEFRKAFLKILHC
row,SMILES,Ki
1,Cc1cc(C(F)(F)F)nc(Nc2ccccc2-c2nnn[nH]2)n1,7300 nM

# Target: T5, D(2) dopamine receptor
# Assay: Displacement of [3H]methylspiperone from human D2L receptor stably expressed in CHO cells by Cheng-Prusoff equation analysis
# Format: cell-based
# Conditions: not given
row,SMILES,Ki
1,Cc1cc(C(F)(F)F)nc(Nc2ccccc2-c2nnn[nH]2)n1,16000 nM

# Target: T1, Taste receptor type 2 member 14 (Homo sapiens)
# Assay: Agonist activity at human TAS2R14 transfected in HEK293T cells assessed as IP1 accumulation at 10 uM measured after 150 mins by IP1 accumulation assay relative to flufenamic acid
# Format: cell-based
# Conditions: filed as agonist
row,Emax,SMILES
1,52%,O=C(O)c1ccccc1Nc1ccnc(C(F)(F)F)c1

# Target: T4, Taste receptor type 2 member 14
# Assay: Agonist activity at human TAS2R14 transfected in HEK293T cells assessed as IP1 accumulation measured after 150 mins by IP1 accumulation assay
# Format: cell-based
# Conditions: not given
row,EC50,SMILES
1,420 nM,N#Cc1ccc(C(F)(F)F)cc1Nc1ccccc1C(=O)O
2,190 nM,O=C(O)c1ccccc1Nc1cccc(S(F)(F)(F)(F)F)c1
3,640 nM,O=C(O)c1ccccc1Nc1cc(C(F)(F)F)ccc1Br
4,230 nM,O=C(O)c1ccccc1Nc1cc(Br)cc(C(F)(F)F)c1
5,3500 nM,FC(F)(F)c1cc(Nc2ccccc2-c2nnn[nH]2)ccn1
6,1800 nM,Cc1c(Nc2ccccc2C(=O)O)cccc1C(F)(F)F
7,380 nM,CC#Cc1cc(Nc2ccccc2C(=O)O)cc(C(F)(F)F)c1
8,390 nM,Cc1ccc(C(F)(F)F)cc1Nc1ccccc1C(=O)O
9,170 nM,N#Cc1ccc(Nc2ccccc2C(=O)O)cc1C(F)(F)F
10,670 nM,O=C(O)c1ccccc1Nc1cccc(C(F)(F)F)n1
11,300 nM,O=C(O)c1ccccc1Nc1ccc(Br)c(C(F)(F)F)c1
12,540 nM,FC(F)(F)c1cc(Cl)nc(Nc2ccccc2-c2nnn[nH]2)n1
13,360 nM,FC(F)(F)c1ccnc(Nc2ccccc2-c2nnn[nH]2)c1
14,180 nM,N#Cc1cc(Nc2ccccc2C(=O)O)cc(C(F)(F)F)c1
15,160 nM,FC(F)(F)c1ccnc(Nc2ccccc2-c2nnn[nH]2)n1
16,1400 nM,C#Cc1cc(C(F)(F)F)nc(Nc2ccccc2-c2nnn[nH]2)n1
17,750 nM,FC(F)(F)c1cc(I)nc(Nc2ccccc2-c2nnn[nH]2)n1
18,2100 nM,O=C(O)c1ccccc1Nc1cccc(C(F)(F)F)c1Br
19,150 nM,C#Cc1cc(Nc2ccccc2C(=O)O)cc(C(F)(F)F)c1
20,1600 nM,O=C(O)c1ccccc1Nc1nccc(C(F)(F)F)n1
21,950 nM,O=C(O)c1ccccc1Nc1cccc(Cl)c1
22,640 nM,CC(C)(C)c1cc(C(F)(F)F)nc(Nc2ccccc2-c2nnn[nH]2)n1
23,98 nM,FC(F)(F)c1cccc(Nc2ccccc2-c2nnn[nH]2)n1
24,190 nM,Cc1cc(Nc2ccccc2C(=O)O)cc(C(F)(F)F)c1
25,1100 nM,FC(F)(F)c1nccc(Nc2ccccc2-c2nnn[nH]2)n1
26,930 nM,O=C(O)c1ccccc1Nc1cccc(OC(F)F)c1
27,300 nM,N#Cc1cc(C(F)(F)F)nc(Nc2ccccc2-c2nnn[nH]2)n1
28,1200 nM,O=C(O)c1ccccc1Nc1cncc(C(F)(F)F)c1
29,6800 nM,Oc1cc(C(F)(F)F)nc(Nc2ccccc2-c2nnn[nH]2)n1
30,330 nM,Cc1ccc(Nc2ccccc2C(=O)O)cc1C(F)(F)F

row,SMILES,EC50
1,Cc1cc(C(F)(F)F)nc(Nc2ccccc2-c2nnn[nH]2)n1,72 nM

# Target: T1, Taste receptor type 2 member 14 (Homo sapiens)
# Assay: Partial agonist activity at human TAS2R14 transfected in HEK293T cells assessed as IP1 accumulation measured after 150 mins by IP1 accumulation assay relative to control
# Format: cell-based
# Conditions: filed as partial agonist
row,Emax,SMILES
1,80%,FC(F)(F)c1cc(Nc2ccccc2-c2nnn[nH]2)cc(C(F)(F)F)c1

# Target: D(3) dopamine receptor (Homo sapiens, UniProt P35462)
# Assay: Displacement of [3H]methylspiperone from human D3 receptor stably expressed in HEK293T cells by Cheng-Prusoff equation analysis
# Format: cell-based
# Conditions: not given
# Sequence of D(3) dopamine receptor (P35462 whole entry): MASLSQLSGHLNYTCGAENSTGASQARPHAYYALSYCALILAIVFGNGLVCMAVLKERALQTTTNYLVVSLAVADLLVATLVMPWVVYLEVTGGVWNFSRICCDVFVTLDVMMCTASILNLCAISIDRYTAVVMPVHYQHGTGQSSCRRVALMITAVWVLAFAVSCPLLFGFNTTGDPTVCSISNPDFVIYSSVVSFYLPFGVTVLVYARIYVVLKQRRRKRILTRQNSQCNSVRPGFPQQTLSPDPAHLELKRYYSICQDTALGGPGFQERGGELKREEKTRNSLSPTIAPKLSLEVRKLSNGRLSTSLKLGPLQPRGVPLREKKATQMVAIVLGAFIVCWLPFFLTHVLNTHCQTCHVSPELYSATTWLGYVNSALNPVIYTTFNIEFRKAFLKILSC
row,SMILES,Ki
1,Cc1cc(C(F)(F)F)nc(Nc2ccccc2-c2nnn[nH]2)n1,1100 nM

# Target: T6, Alpha-2C adrenergic receptor (Homo sapiens, UniProt P18825)
# T6 sequence (P18825 whole entry): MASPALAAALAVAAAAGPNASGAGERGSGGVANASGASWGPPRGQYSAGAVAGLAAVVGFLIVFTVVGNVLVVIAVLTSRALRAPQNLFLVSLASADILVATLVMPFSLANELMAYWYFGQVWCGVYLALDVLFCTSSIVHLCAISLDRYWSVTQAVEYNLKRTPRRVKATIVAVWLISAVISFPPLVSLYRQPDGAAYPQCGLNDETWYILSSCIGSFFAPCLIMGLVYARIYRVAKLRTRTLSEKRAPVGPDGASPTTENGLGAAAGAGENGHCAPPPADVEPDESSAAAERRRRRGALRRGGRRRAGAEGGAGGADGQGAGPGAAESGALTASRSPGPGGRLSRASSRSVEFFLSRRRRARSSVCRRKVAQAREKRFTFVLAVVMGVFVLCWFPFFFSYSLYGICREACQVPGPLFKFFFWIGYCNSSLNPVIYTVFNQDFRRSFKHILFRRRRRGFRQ
# Assay: Displacement of [3H]RX821002 from human alpha2C receptor stably expressed in HEK293T cells by Cheng-Prusoff equation analysis
# Format: cell-based
# Conditions: not given
row,Ki,SMILES
1,17000 nM,C#Cc1cc(Nc2ccccc2C(=O)O)cc(C(F)(F)F)c1
